From patent publication US4841051A, “Phenylpiperazine derivatives” (Nippon Kayaku Kabushiki Kaisha, priority 1985, dated 1989)

Legend:
[1] = target: T1, isolated vas deferens of a rat (Rattus norvegicus, UniProt P43140); assay: Action on isolated vas deferens of a rat (antagonism against noradrenaline); parameters: species or system SD male rat; conditions: 3 minutes pretreatment, 32° C., read-out: pA2 (converted)
T1 construct: The vas deferens was isolated from SD male rats and cut into strips about 20 mm long; from tissue; host or cells: vas deferens of SD male rats
T1 sequence (P43140 1-466): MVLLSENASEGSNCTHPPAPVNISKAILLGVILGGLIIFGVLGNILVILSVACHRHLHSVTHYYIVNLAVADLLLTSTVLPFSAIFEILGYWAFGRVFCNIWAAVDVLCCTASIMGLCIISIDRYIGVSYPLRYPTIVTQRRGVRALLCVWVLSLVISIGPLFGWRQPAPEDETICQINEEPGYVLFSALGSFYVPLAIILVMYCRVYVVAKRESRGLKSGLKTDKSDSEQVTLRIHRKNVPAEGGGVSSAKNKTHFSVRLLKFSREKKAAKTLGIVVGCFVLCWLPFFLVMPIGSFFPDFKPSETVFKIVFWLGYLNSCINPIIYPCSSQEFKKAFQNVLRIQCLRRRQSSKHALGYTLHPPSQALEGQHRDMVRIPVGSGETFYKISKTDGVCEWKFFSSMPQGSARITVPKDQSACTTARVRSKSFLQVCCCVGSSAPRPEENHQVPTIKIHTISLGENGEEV
Description: The vas deferens was isolated from SD male rats and cut into strips about 20 mm long. The both ends of the strip were bounded with two threads respectively. The thread attached to one end of the strips was fixed in a 10-ml organ bath and the thread attached to other end was connected to an isotonic transducer. The bath was filled with Tyrode's solution of 32° C. comprising a solution of 8.0 g of NaCl, 0.2 g of KCl, 0.2 g of CaCl2, 0.1 g of MgCl2, 0.05 g of NaH2 PO4, 1.0 g of NaHCO3 and 1.0 g of glucose in 1 l of deionized water. A gas mixture comprising 95% of oxygen and 5% of carbon dioxide was bubbled into the bath. Resting tension of 0.5 g was loaded. Noradrenaline was treated accumulatively in the bath to obtain a consistent dose-response curve. After the pretreatment of the preparation with a sample compound for 3 minutes, another dose-response curve of noradrenaline was obtained to determine the activities of the compound. The strength of antagonism against noradrenaline was determined from these dose-response curves in terms of pA2 value.

SHR rat = assay: Hypotensive activity, SHR rat; format: in vivo; conditions: 3 μg/kg, injected into femoral vein, anesthetized SHR rat
Description: (§1) The experiment was carried out using an SHR or SD male rat under anesthesia. The blood pressure was measured by inserting a polyethylene tube (a product of Clay Adams Co., Ltd.: PE-50) into its carotid arteries and using a pressure transducer (a product of Century Technology Company: CP-01) and continuously recorded on a recorder (a product of Nippon Koden Co., Ltd.). Sample compounds were each injected by a polyethylene tube (a product of Clay Adams Co., Ltd.: PE-10) inserted into the femoral vein of the rat in an amount of 3 μg/kg for an SHR rat or 10 μg/kg for an SD rat to examine the maximum hypotensive effect on systolic pressure.

[2] = Acute toxicity, intraperitoneal; conditions: mouse, in vivo, ip, ICR male mice, up-and-down method or van der Welden method
Description: The acute toxicity due to intraperitoneal administration of a sample compound was examined by using ICR male mice (CRJ-ICR: weight of 29.5 to 52.3 g). Each sample compound was administered to from ten to thirty mice. The mice were observed until the symptom got well again. The LD50 values were determined by the up-and-down method or by van der Welden method.

SD rat = assay: Hypotensive activity, SD rat; format: in vivo, SD male rat; conditions: 10 μg/kg, injected into femoral vein, anesthetized SD rat
Description: as §1

α1 -receptor = assay: α1 -blocking activity (inhibition of blood pressure increase due to phenylephrine); format: in vivo; conditions: 10 μg/kg, femoral vein; phenylephrine 2 μg/kg i.v.; anesthetized SD male rat
Description: The blood pressure (a) of an SD male rat of 7 to 8 weeks of age was measured and 2 μg/kg of phenylephrine was administered to the rat by intravenous injection. Then the maximum response of blood pressure (b) was measured. 10 μg/kg of a sample compound was administered to the rats, followed by the intravenous injection of 2 μg/kg of phenylephrine. Then, the maximum response of blood pressure (c) was measured. The depression (d) of blood pressure increased due to phenylephrine was calculated by the following equation: [formula]
The animal was anesthetized by intraperitoneal administration of 40 mg/kg of nembutal and the anesthetic depth was kept by intravenous drip infusion of 15 mg/kg/hr of pentobarbital sodium. The blood pressure was measured by inserting a polyethylene tube (a product of Clay Adams: PE-50) and using a transducer (a product of Century Technology Company: CP-01) and continuously recorded on a pen oscillograph (a product of Nippon Koden Co., Ltd. WI-6416). Each sample compound was injected by a polyethylene tube (a product of Clay Adams Co., Ltd.: PE-10) inserted into the femoral vein.

Compound | Kb [1] | maximum hypotensive effect on systolic pressure, SHR rat (SHR rat) | LD50 [2] | maximum hypotensive effect on systolic pressure, SD rat (SD rat) | Percentage of inhibition of blood pressure increase (α1 -receptor)
CCOc1ccccc1N1CCN(CCCn2c(C)nc3nc(C)cc(C)c3c2=O)CC1 [Compound 6, 2,5,7-Trimethyl-3-[3-[4-(2-ethoxyphenyl)-1-piperazinyl]-propyl]pyrido[2,3-d]pyrimidin-4(3H)-one] | 2.51 nM | ++ (pressure drop of 11 to 20 mmHg) | 128 mg/kg | – | –
CCOc1ccccc1N1CCN(CCn2cnc3ccccc3c2=O)CC1 [Compound 1, 3-[2-[4-(2-Ethoxyphenyl)-1-piperazinyl]-ethyl]-4(3H)-quinazolone] | 0.501 nM | +++ (pressure drop of 21 to 30 mmHg) | 400 mg/kg | – | –
CCOc1ccccc1N1CCN(CCCCn2c(=O)n(-c3ccccc3)c(=O)c3c(C)cc(C)nc32)CC1 [Compound 10, 3-Phenyl-5,7-dimethyl-1-[4-[4-(2-ethoxyphenyl)-1-piperazinyl]butyl]pyrido[2,3-d]pyrimidine-2,4(1H,3H)-dione] | 7.94 nM | ++ (pressure drop of 11 to 20 mmHg) | 328 mg/kg | – | –
CCOc1ccccc1N1CCN(CCCCn2cnc3ccccc3c2=O)CC1 [Compound 5, 3-{4-[4-(2-Ethoxyphenyl)-1-piperazinyl]butyl}-4(3H)-quinazolone] | 0.398 nM | +++ (pressure drop of 21 to 30 mmHg) | 150 mg/kg | 57.5 mmHg | 89.6%
CCOc1ccccc1N1CCN(CCn2c(C)nc3ccccc3c2=O)CC1 [Compound 3] | 3.16 nM | +++ (pressure drop of 21 to 30 mmHg) | 119 mg/kg | – | –
CCOc1ccccc1N1CCN(CCCCn2c(C)nc3nc(C)cc(C)c3c2=O)CC1 [Compound 7] | 5.01 nM | ++ (pressure drop of 11 to 20 mmHg) | 137 mg/kg | – | –
CCOc1ccccc1N1CCN(CCCn2c(C)nc3ccccc3c2=O)CC1 [Compound 4] | 10 nM | ++ (pressure drop of 11 to 20 mmHg) | 152 mg/kg | – | –
CCOc1ccccc1N1CCN(CCn2c(C)nc3nc(C)cc(C)c3c2=O)CC1 [Compound 8] | 6.31 nM | ++ (pressure drop of 11 to 20 mmHg) | 207 mg/kg | – | –
